Source: US11820759B2, “Modulators of chemokine receptors” (CHEMOCENTRYX, INC., priority 2015, dated 2023)

Test system: IL-23 induced ear swelling
Experiment: IL-23 induced ear swelling model for psoriasis
Format: in vivo
Conditions: C57B1/6 mice; sub-cutaneous, therapeutic dosing after 3 intradermal injections of IL-23; calipers; FIG. 2
Procedure: An intradermal injection of IL-23 into the ear of mice can cause a swelling of the ear which is CCR6 dependent (Hedrick M. N et. al. J. Clinical Investigation. 2009. 119:2317-2329). C57B1/6 mice were given intradermal injections of IL-23 in the right ear. PBS was given by intradermal injection into the left ear as a control. Compound 1.023 (synthesized in example 6) was dosed by sub-cutaneous route. The compound was dosed in a therapeutic manner, after 3 intradermal injections of IL-23 and upon initiation of moderate ear swelling. The degree of swelling was measured using calipers.

SMILES: COc1ccc(C(=O)O)c(N2Cc3c(Cl)ccc(Nc4c(N[C@@H](c5cc(C)c(C)o5)C(C)(C)C)c(=O)c4=O)c3C2=O)c1 [Compound 1.023, 2-[4-chloro-7-[[2-[[(1R)-1-(4,5-dimethyl-2-furyl)-2,2-dimethyl-propyl]amino]-3,4-dioxo-cyclobuten-1-yl]amino]-1-oxo-isoindolin-2-yl]-4-methoxy-benzoic acid]
- IL-23 induced ear swelling: completely inhibit IL-23 induced ear swelling
